# Entries after “also recorded” stand apart in the source; their conditions may differ.
# Assays:
# Assay type in all cases: cell-based, mouse
# AMPK = experiment: Western blot of AMPK and TCR signaling events in CD8 T cells with AICAR treatment
# Procedure: In some other experiments, AICAR (5-aminoimidazole-4-carboxamide 1-β-D-ribofuranoside, Cat #A9978, Sigma-Aldrich), an AMPK activator, was reconstituted in DMSO and used to pretreat T cells for 30 minutes, at the concentration of 2 mM followed by 20 minutes of anti-CD3 stimulation for western blot analysis of TCR signaling events, or at the concentration of 250 μM followed by 16 hours of anti-CD3 stimulation for flow cytometry analysis of CD25 expression and ELISA analysis of IL-2 production.
# Total protein was extracted using RIPA lysis buffer (Thermo Fisher Scientific) supplemented with a phosphatase inhibitor cocktail (Sigma-Aldrich) and a protease inhibitor cocktail (Roche) following the manufacturers' instructions. Nuclear protein was extracted using a Nuclear Protein Extraction Kit (Thermo Fisher Scientific) following the manufacturer's instructions, or using homemade reagents (10 mM HEPES pH 7.9, 10 mM KCl, 0.34 M sucrose, 10% glycerol, 1 mM DTT, 0.1% Triton X-100, 1.5 mM MgCl2 and protease inhibitor cocktail) following a previously established protocol (Ma et al., 2019). Protein concentration was measured by a BCA assay (Cat #23228 and Cat #1859078, Thermo Fisher Scientific). Equal amounts of protein were resolved on a 12% SDS-PAGE gel and then transferred to a PVDF membrane by electrophoresis. The following anti-mouse antibodies were purchased from Cell Signaling Technology and used to blot for the protein of interest: p-Zap-70 (cat #2705S; clone 99F2); Zap-70 (cat #2717S; clone Y319); p-Lck (cat #2751S; clone Y505); Lck (cat #2752S); p-c-Jun (cat #9261S; clone S63); NFAT (cat #4389S); NF-κB p65 (cat #8242P; clone D14E12); AMPK (cat #5831T; clone D5A2); p-AMPK (cat #2535T; clone 40H9), secondary anti-mouse (cat #7076P2), and secondary anti-rabbit (cat #7074P2). Anti-mouse CrT (SLC6A8) (cat #PA5-37060) was purchased from Thermo Fisher Scientific. β-Actin (Santa Cruz Biotechnology Inc.; cat #sc-69879; clone AC-15) was used as an internal control for total protein extracts, while Lamin A (Santa Cruz Biotechnology; cat #sc-71481; clone 4A58) was used as an internal control for nuclear protein extracts. Signals were visualized with autoradiography using an ECL system (Cat #RPN2232, Thermo Fisher Scientific). Data analysis was performed using ImageJ software (NIH).
# CD8 T cells [1] = experiment: CD8 T cell activation with AICAR treatment (CD25 flow cytometry, IL-2 ELISA); conditions: CrT-WT and CrT-KO CD8 T cells; AICAR 250 μM; anti-CD3 16 hours
# Procedure: CD8 T cells were cultured in vitro in standard T cell culture medium comprising RPMI 1640 (Cat #10040, Corning), 10% FBS (Cat #F2442, Sigma), 1% Penicillin-Streptomycin-Glutamine (Cat #10378016, Gibco), 1% MEM Non-Essential Amino Acids Solution (Cat #11140050, Gibco), 1% HEPES (Cat #15630080, Gibco), 1% Sodium Pyruvate (100 mM) (Cat #11360070, Gibco), and 0.05 mM β -Mercaptoethanol (Cat #M3148, Sigma). Unless otherwise indicated, cells were seeded at 0.5×10^6 cells per well in 24-well plates and stimulated with plate-bound anti-CD3 (5 μg/ml) (clone 145-2C11), for up to 5 days. At indicated time point(s), cells were collected and analyzed for CrT mRNA expression using qPCR, for cell proliferation through cell counting, for viability through Annexin V/7-AAD staining followed by flow cytometry analysis, for surface activation marker (CD25) expression through surface staining followed by flow cytometry analysis, for effector molecule (Granzyme B, IL-2, and IFN-γ) production through intracellular staining followed by flow cytometry analysis, and for cytokine (IL-2 and IFN-γ) secretion through collecting cell culture supernatants followed by ELISA analysis. CrT protein expression and TCR signaling events were analyzed using western blot analysis. […]
# TCR signaling = experiment: Western blot of TCR signaling events in CrT-KO CD8 T cells with ATP supplementation; conditions: ATP 100 μM, restimulated with anti-CD3 30 minutes
# Procedure: (§1) In some experiments, ATP (adenosine-5′-triphosphate disodium salt hydrate, Cat #A6419, Sigma-Aldrich) was reconstituted in sterile PBS and added to T cell culture (100 μM) for two to three days along with anti-CD3 stimulation, followed by analyzing T cell surface activation marker (CD25) expression using flow cytometry, and analyzing effector cytokine (IFN-γ) secretion using ELISA. In some experiments, T cells were stimulated with anti-CD3 for 48 hours, rested at 4° C. for 2 hours, then restimulated with anti-CD3 for 30 minutes in the presence or absence of ATP supplementation (100 μM) followed by analyzing TCR signaling events using western blot.
# Total protein was extracted using RIPA lysis buffer (Thermo Fisher Scientific) supplemented with a phosphatase inhibitor cocktail (Sigma-Aldrich) and a protease inhibitor cocktail (Roche) following the manufacturers' instructions. Nuclear protein was extracted using a Nuclear Protein Extraction Kit (Thermo Fisher Scientific) following the manufacturer's instructions, or using homemade reagents (10 mM HEPES pH 7.9, 10 mM KCl, 0.34 M sucrose, 10% glycerol, 1 mM DTT, 0.1% Triton X-100, 1.5 mM MgCl2 and protease inhibitor cocktail) following a previously established protocol (Ma et al., 2019). Protein concentration was measured by a BCA assay (Cat #23228 and Cat #1859078, Thermo Fisher Scientific). […]
# CD8 T cells [2] = experiment: CD8 T cell activation in vitro with ATP supplementation (CD25 flow cytometry, IFN-γ ELISA); conditions: ATP 100 μM, anti-CD3
# Procedure: CD8 T cells were cultured in vitro in standard T cell culture medium comprising RPMI 1640 (Cat #10040, Corning), 10% FBS (Cat #F2442, Sigma), 1% Penicillin-Streptomycin-Glutamine (Cat #10378016, Gibco), 1% MEM Non-Essential Amino Acids Solution (Cat #11140050, Gibco), 1% HEPES (Cat #15630080, Gibco), 1% Sodium Pyruvate (100 mM) (Cat #11360070, Gibco), and 0.05 mM β -Mercaptoethanol (Cat #M3148, Sigma). Unless otherwise indicated, cells were seeded at 0.5×10^6 cells per well in 24-well plates and stimulated with plate-bound anti-CD3 (5 μg/ml) (clone 145-2C11), for up to 5 days. At indicated time point(s), cells were collected and analyzed for CrT mRNA expression using qPCR, for cell proliferation through cell counting, for viability through Annexin V/7-AAD staining followed by flow cytometry analysis, for surface activation marker (CD25) expression through surface staining followed by flow cytometry analysis, for effector molecule (Granzyme B, IL-2, and IFN-γ) production through intracellular staining followed by flow cytometry analysis, and for cytokine (IL-2 and IFN-γ) secretion through collecting cell culture supernatants followed by ELISA analysis. CrT protein expression and TCR signaling events were analyzed using western blot analysis.
# as §1
# ELISA was performed for the detection of cytokines according to a BD Biosciences protocol. […] The absorbance was measured at 450 nm using an Infinite M1000 microplate reader (Tecan).
SMILES,"activation of NFAT (AMPK; CD8 T cells, AICAR 2 mM)","activation of Zap-70 (AMPK; CD8 T cells, AICAR 2 mM)","AP-1 transcription factor activation (c-Jun subunit) (AMPK; CrT-WT and CrT-KO CD8 T cells, AICAR 2 mM)","AMPK activation (AMPK; CrT-WT and CrT-KO CD8 T cells, AICAR 2 mM pretreatment 30 minutes)",cell surface activation marker expression (CD25) (CD8 T cells [1]),effector cytokine production (IL-2) (CD8 T cells [1]),TCR signaling deficiencies (TCR signaling),"effector cytokine IFN-γ production (CD8 T cells [2]; CrT-KO CD8 T cells, day 3)","surface activation marker CD25 expression (CD8 T cells [2]; CrT-KO CD8 T cells, day 3)","activation of CD8 T cells (CD25) (CD8 T cells [2]; CrT-WT CD8 T cells, 48 hours, disodium salt hydrate)"
"NC(=O)c1ncn([C@@H]2O[C@H](CO)[C@@H](O)[C@H]2O)c1N [AICAR, 5-aminoimidazole-4-carboxamide 1-β-D-ribofuranoside]",not affected,not affected,significant reduction,markedly activated AMPK,significant reduction,significant reduction,–,–,–,–
"Nc1ncnc2c1ncn2[C@@H]1O[C@H](COP(=O)([O-])OP(=O)([O-])OP(=O)(O)O)[C@@H](O)[C@H]1O.O.[Na+].[Na+] [ATP, adenosine-5′-triphosphate disodium salt hydrate]",–,–,–,–,–,–,effectively rescued,enhanced production,increased expression,further increased the activation; also recorded: further enhanced the activation

# Reference: patent US20220288001A1, “CREATINE FOR IMMUNOTHERAPY” (The Regents of the University of California, priority 2019, published 2022)
